Results published in ChEMBL document CHEMBL1821723 (J Med Chem, 2011).

Test: in vitro
Details: human, liver microsomes
Description: Metabolic stability in human liver microsome assessed as compound remaining after 30 mins

| remaining at 0.5 h [%] | SMILES |
| --- | --- |
| 3.6 | CC(Oc1cc(-c2cnn(C(C)(C)C(=O)NCCN(C)C)c2)cnc1N)c1c(Cl)ccc(F)c1Cl (racemic) |
| 44 | CC(Oc1cc(-c2cnn(C3CNC3)c2)cnc1N)c1c(Cl)ccc(F)c1Cl (racemic) |
| 0.9 | CC(Oc1cc(-c2cnn(CC3(O)CCOCC3)c2)cnc1N)c1c(Cl)ccc(F)c1Cl (racemic) |
| 5.2 | CC(Oc1cc(-c2cnn(C)c2)cnc1N)c1c(Cl)ccc(F)c1Cl (racemic) |
| 23.8 | CC(Oc1cc(-c2cnn(CC(=O)NCCCN(C)C)c2)cnc1N)c1c(Cl)ccc(F)c1Cl (racemic) |
| 71 | CC(Oc1cc(-c2cnn(CC3CNC3)c2)cnc1N)c1c(Cl)ccc(F)c1Cl (racemic) |
| 47.8 | CC(Oc1cc(-c2cnn(CC3CN(CC(N)=O)C3)c2)cnc1N)c1c(Cl)ccc(F)c1Cl (racemic) |
| 44.3 | CC(Oc1cc(-c2cnn(C3CCCNC3)c2)cnc1N)c1c(Cl)ccc(F)c1Cl (racemic) |
| 3.2 | CC(Oc1cc(-c2cnn(C(C)C)c2)cnc1N)c1c(Cl)ccc(F)c1Cl (racemic) |
